Data on 4 compounds can be found in ChEMBL document CHEMBL6083246 (Bioorg Med Chem, 2024).

The target of series [1] is Aldo-keto reductase family 1 member B1 (Mus musculus) (UniProt P45376). As to the kind of experiment: Induction of thermal stabilization of AKR1B1 in mouse RAW264.7 cells at 50 uM at 45 to 75 degreeC incubated for 2 hrs by cellular thermal shift assay. The format is cell-based.
Series [2] relates to RAW264.7. As to the kind of experiment: Antiinflammatory activity in LPS induced mouse RAW264.7 cells assessed as reduction in NO production incubated for 24 hrs by Griess reagent based assay. The series is classed as functional, cell-based. In general terms: Nitrite, measured by Griess reagent, commonly stands in for NO production.
The subject of series [3] is RAW264.7. As to the kind of experiment: Cytotoxicity against mouse RAW264.7 cells assessed as reduction in cell viability at 1080 uM incubated for 24 hrs by CCK8 assay. The format is toxicity, cell-based. The note with it: raw264.7, 24 h. Background: Tetrazolium dyes change colour on reduction, which living cells bring about.
Series [4] relates to RAW264.7. Kind of series: Cytotoxicity against mouse RAW264.7 cells assessed as reduction in cell viability at < 640 uM incubated for 24 hrs by CCK8 assay. The format is toxicity, cell-based. The note with it: raw264.7, 24 h.
Series [5] concerns RAW264.7. Kind of series: Antiinflammatory activity in LPS induced mouse RAW264.7 cells reduction in ROS production incubated for 24 hrs by DCFH-DA staining based microplate reader analysis. The series is classed as functional, cell-based.
Series [6] deals with RAW264.7. As to the kind of experiment: Antiinflammatory activity in LPS induced mouse RAW264.7 cells reduction in ROS production at 50 uM incubated for 24 hrs by DCFH-DA staining based microplate reader analysis. The series is classed as functional, cell-based.
Series [7] deals with RAW264.7. Kind of series: Antiinflammatory activity in LPS induced mouse RAW264.7 cells assessed as reduction in IL-6 production at 50 uM incubated for 24 hrs by ELISA. The series is classed as functional, cell-based.
Series [8] deals with RAW264.7. As to the kind of experiment: Antiinflammatory activity in LPS induced mouse RAW264.7 cells assessed as reduction in TNFalpha production at 50 uM incubated for 24 hrs by ELISA. The series is classed as functional, cell-based. In general terms: ELISA stands for enzyme-linked immunosorbent assay.
Series [9] has as its system RAW264.7. As to the kind of experiment: Antiinflammatory activity in LPS induced mouse RAW264.7 cells assessed as reduction in NO production at 50 uM incubated for 24 hrs by Griess reagent based assay. The format is functional, cell-based.

Active and inactive are the calls of the source. No cut-off for these calls is given here.

On to `O=C(/C=C/c1ccc(O)c(O)c1)O[C@@H]1C[C@@](O)(C(=O)O)C[C@@H](O)[C@@H]1O`, for which the result in [1] was Active. In addition, the Activity result in the series on RAW264.7 [2] is “Dose-dependent-effect”; with RAW264.7 [3], “Toxic”; in the series on RAW264.7 [4] it was “Non-toxic”; in the series on RAW264.7 [5] it was “Dose-dependent-effect”.

With `O=C(/C=C/c1ccc(O)c(O)c1)O[C@@H]1C[C@](O)(C(=O)O)C[C@@H](O)[C@H]1O` [CHLOROGENIC ACID], the result (in the series on RAW264.7 [6]; in series [1]) was Active. Further, the Activity result is “Dose-dependent-effect” in the series with RAW264.7 [2]; “Toxic” in the series on RAW264.7 [3]; “Active; Showed Higher Activity Compared To 4-Cqa And 5-Cqa” in the series on RAW264.7 [7]; “Non-toxic” with RAW264.7 [4]; “Active; Showed Higher Activity Compared To 4-Cqa And 5-Cqa” with RAW264.7 [8]; “Active; Showed Higher Activity Compared To 4-Cqa And 5-Cqa” in the series with RAW264.7 [9]. For the same compound, the Activity entry in the series on RAW264.7 [5] was “Dose-dependent-effect”.

Consider `CC(/C=C1\SC(=S)N(CC(=O)O)C1=O)=C\c1ccccc1`, for which the result in the series with RAW264.7 [7] and in the series with RAW264.7 [8] was Active.

Consider `O=C(/C=C/c1ccc(O)c(O)c1)O[C@H]1[C@H](O)C[C@](O)(C(=O)O)C[C@H]1O`, for which the outcome in [1] was Active. The Activity result is “Dose-dependent-effect” with RAW264.7 [2]; “Toxic” in the series on RAW264.7 [3]; “Non-toxic” with RAW264.7 [4]; “Active; Showed Higher Activity Compared To 5-Cqa” with RAW264.7 [8]; “Dose-dependent-effect” in the series with RAW264.7 [5].
